This is an account of results in US7223864B2, “2-hydroxyethidium, methods of preparation and uses thereof” (MCW Research Foundation, Inc., priority 2004, dated 2007).

For series [1] the following is noted: literature value used in competition analysis; cited from earlier work.
The subject of series [2] is X/XO-catalyzed oxidation of HE (superoxide). Description: Oxidation of HE by xanthine/xanthine oxidase (X/XO), fluorescence. It counts as biochemical. The conditions noted are these: for effect on increase in fluorescence due to X/XO-catalyzed oxidation of HE: HE 50 μM, DNA 250 μg mL^−1, SOD 20 μg mL^−1, catalase 1000 U mL^−1. How it is done: (A) Incubation mixtures consisted of HE (50 μM), xanthine (1 mM), DTPA (100 μM), and XO (0.05 U mL^−1) in aerated phosphate buffer (100 mM, pH 7.4). Reaction was initiated by the addition of XO and the fluorescence spectrum recorded after 30 min. Shown for comparison is the spectrum obtained from E^+ (50 μM) obtained under identical experimental conditions. (B) Same as (A) but in the presence of DNA (250 μg mL^−1). (C) Incubations contained HE (50 μM), DTPA (100 μM) and DNA (250 μg mL^−1) and xanthine (1 mM) or XO (0.05 U mL^−1), both in the presence and absence of SOD (20 μg mL^−1). (D) Same as (B) but in the presence of catalase (1000 U mL^−1).
(A) Incubation initially consisted of HE (50 μM), xanthine (1 mM), XO (0.025 U mL^−1) and DTPA (100 μM) in phosphate buffer (100 mM, pH 7.4). A 50 μM of DEA/NO added at the point indicated by downward arrow. After the increase in fluorescence intensity ceased, an additional bolus amount of HE was added. (B) Same as (A) except XO (0.005 U mL^−1) and DEA/NO were added at a much lower concentration (10 μM).
(§1) Fluorescence measurements—The oxidation of HE in a superoxide generating system was performed on a Shimadzu RF-5301 PC spectrofluorometer (Shimadzu Scientific Instruments Inc., Japan). Typically, excitation was at 510 nm with a 3 or 5 nm slit width and the spectra were recorded over a wavelength region of 540–800 nm using a 10 or 20 nm slit width. The fluorescence emission spectra indicate the actual color of the product of superoxide and HE reaction, E^+ and HE.

The nature of series [3]: Fluorescence measurements (fluorescence spectral characteristics). The class given is physicochemical. Conditions: for Fluorescence color / Emission maximum (nm): /DNA labels = in the presence of DNA; for Extinction coefficient (mM^−1)*: E^+: excitation maximum 518 nm, HE/superoxide product: excitation maximum 480 nm, slit 3 nm, emission slit 20 nm; for Emission maximum (nm): phosphate buffer (100 mM, pH 7.4). How it is done:
as §1
Superoxide generation was measured to be 8 μM/min.

Series [4] can be described thus: Competition kinetic analysis of the reaction between HE and superoxide. The conditions noted are these: tentative, competition with BMPO and Cu, Zn-SOD. How it is done:
Kinetic analysis of the reaction between HE and superoxide—The rate constant between HE and superoxide was calculated from competition experiments. At saturating concentrations of HE, superoxide will be consumed as follows:
Dismutation of superoxide was not considered in our analysis, because at saturating concentrations of HE (compared to superoxide flux), this reaction is negligible (Vásquez-Vivar, J. et al. Free Radic. Biol. Med. 31:975–985, 2001). Thus, assuming a steady-state approximation, the rate of superoxide consumption will be equal to new fluorescent product (P) formation, defined by
[formula] where kHE is the apparent rate constant for the reaction of HE with superoxide under the experimental conditions. Therefore, the ratio between V and V0 that corresponds to the rate of new product formation in the presence and absence of scavenger, respectively, is defined by
[formula] The values of V and V0 can be calculated from variations in fluorescence intensity of new product over time. In these experiments, 5-tert-butoxycarbonyl 5-methyl-1-pyrroline N-oxide (BMPO) and bovine Cu, Zn-SOD were used to trap or dismutate superoxide. The rate constant used for the reaction between BMPO and superoxide was 77±5 M^−1 s^−1 (Rosen, G. et al. J. Biol. Chem. 277:40275–40280, 2002) and 3×10^9 M^−1 s^−1 for Cu, Zn-SOD. […]

Series [5] concerns Bovine aortic endothelial cells. Kind of series: Intracellular detection of superoxide with HE in menadione-treated cells. It counts as cell-based. Conditions: 25 min menadione exposure, then 10 μM HE for 20 min; versus control cells. How it is done:
Bovine aortic endothelial cells were treated with menadione, a redox-cycling quinone known to induce cellular oxidative stress. After 25 min of exposure, cells were washed free of extracellular menadione and treated with 10 μM of HE for 20 min. Cells were washed and fluorescent images obtained in a fluorescence microscope. […] Cells were lysed and products extracted with n-butanol. After centrifugation to separate out the cell debris, the top layer of butanol was dried, dissolved in water, and HPLC/fluorescence chromatogram was obtained (FIG. 12). The intense peak eluting at 29 min corresponds to that of 2-hydroxyethidium (FIG. 12, top trace). For better separation in biological samples, a linear increase in CH3CN concentration from 10% to 70% in 46 min was used instead of a linear increase in CH3CN concentration from 10% to 40% in 30 min. The other HPLC analysis conditions were same as described above.

In series [6] the test system is oxidation of HE by potassium superoxide. Kind of series: Oxidation of HE by potassium superoxide, fluorescence. The class given is biochemical. The conditions noted are these: SOD 20 μg mL^−1, KO2 1.1 mM. How it is done:
(A) Incubations consisted of HE (50 μM), DTPA (100 μM), and KO2 in the presence and absence of DNA (250 μg mL^−1) in phosphate buffer (100 mM, pH 7.4). Superoxide solution was prepared by adding 1 mg of KO2 in 1 mL of dry DMSO and vortexed vigorously for 10 min. The reaction was initiated by adding 40 μL of freshly prepared KO2 in DMSO to 0.46 mL of the above buffer (final concentration of KO2 was 1.1 mM). (B) Same as (A) but also containing SOD (20 μg mL^−1). The extent of oxidation of HE under these conditions is much less than that observed in X/XO.
as §1

Series [7] concerns the target T1, endothelial nitric oxide synthase (eNOS) (Bos taurus, UniProt P29473).
T1 construct: made in house; host or cells: Escherichia coli
Kind of series: Oxidation of HE by endothelial NOS, fluorescence. The class given is biochemical. The conditions noted are these: SOD 20 μg mL^−1; BH4 10 μM; Ca^2+/CaM. How it is done:
(A) Incubations consisted of NADPH (0.1 mM), DTPA (100 μM), HE (50 μM), L-arginine (0.1 mM), purified eNOS (6.25 μg mL^−1), and Ca^2+ (0.2 mM)/CaM (20 μg mL^−1) in a HEPES buffer (50 mM, pH 7.4). Spectra were obtained 30 min after the addition of eNOS to different incubation mixtures. […] (B) Time-dependent changes in fluorescence of the product formed from an incubation mixture containing NADPH (0.1 mM), HE (50 μM), DTPA (100 μM), Ca^2+ (0.2 mM)/CaM (20 μg mL^−1), and purified eNOS (6.25 μg mL^−1) in a HEPES buffer (50 mM, pH 7.4). (C) Same as (B) except in the presence of SOD (20 μg mL^−1).
as §1

Turning to `CC(C)(C)OC(=O)C1(C)CCC=[N+]1[O-]` (centres unmarked) [BMPO, 5-tert-butoxycarbonyl 5-methyl-1-pyrroline N-oxide], the “rate constant used for the reaction with superoxide” value in series [1] was 77 ± 5 M⁻¹ s⁻¹.

As to `CCN(CC)[N+]([O-])=NO` [DEA/NO, 2-(N,N-diethylamino)-diazenolate-2-oxide], the “effect on increase of fluorescence due to superoxide-dependent oxidation of HE by X/XO” value in series [2] (DEA/NO 10 μM, XO 0.005 U mL^−1) is on record as “inhibited”.

Turning to `CC[n+]1c(-c2ccccc2)c2cc(N)ccc2c2ccc(N)cc21` [E^+, ethidium], in series [3], the Fluorescence color result is listed as “Red”, the “Extinction coefficient (mM^−1)*” value came to 232 mM⁻¹ and the “Emission maximum (nm)” value was 603 nm. In addition, the “Emission maximum (nm)” value in series [3] (listed as ethidium) is 605 nm.

Turning to `CCN1c2cc(N)ccc2-c2ccc(N)cc2C1c1ccccc1` (centres unmarked) [HE, Hydroethidine (dihydroethidium)], in series [3], the Fluorescence color result is recorded as “Red”, the “Extinction coefficient (mM^−1)*” value amounted to 48 mM⁻¹ and the “Emission maximum (nm)” value was 595 nm. Also, the “rate constant between the superoxide anion and HE” value in series [4] is “approximately 2.6±0.6×10^5 M^−1 s^−1”.

Regarding `CC[n+]1c(-c2ccccc2)c2cc(N)ccc2c2cc(O)c(N)cc21` [HE/superoxide product, 2-hydroxyethidium], in series [3], the Fluorescence color entry is “Orange”, the “Extinction coefficient (mM^−1)*” value is 285 mM⁻¹ and the “Emission maximum (nm)” value stood at 586 nm. In addition, the emission maximum in series [3] (purified product, in the presence of DNA (250 μg mL^−1) in phosphate buffer) was found to be 567 nm.

`CC1=CC(=O)c2ccccc2C1=O` [menadione]: the “fluorescence of cells after HE (fluorescence microscope)” value in series [5] is recorded as “intense red fluorescence”.

Turning to “Cu, Zn-SOD: Bovine copper, zinc superoxide dismutase”, the “effect on increase in fluorescence due to X/XO-catalyzed oxidation of HE” value in series [2] is “completely nullified”. Also, in series [6], the “effect on formation of fluorescent product from HE and potassium superoxide” value is “inhibited the formation of this product”. In addition, the “effect on oxidation of HE by eNOS” value in series [7] is “inhibited the oxidation of HE”. In series [1], the “rate constant used for the reaction with superoxide” value was 3e+09 M⁻¹ s⁻¹.

Turning to catalase, the “effect on increase in fluorescence due to X/XO-catalyzed oxidation of HE” value in series [2] is listed as “increased slightly”.
